The supplement of paper PMC13380429

Tests used:
Settings in all cases: 72 h
HepG2 [1] = test: relative viability EC50 (midpoint between 100% and the lowest measured viability); higher = less toxic
Caco-2 [2] = test: as above
Vero E6 [3] = test: as above
U2OS [4] = test: as above
HepG2 [5] = test: cell viability relative to DMSO; higher = less toxic
Caco-2 [6] = test: as above
Vero E6 [7] = test: as above
U2OS [8] = test: as above
HepG2 [9] = test: drug sensitivity score (DSS) for viability; higher = more toxic; extreme values may be limits of the assay
Caco-2 [10] = test: as above
Vero E6 [11] = test: as above
U2OS [12] = test: as above
Calu-3 [13] = test: cell viability relative to DMSO; higher = less toxic
Calu-3 [14] = test: drug sensitivity score (DSS) for viability; higher = more toxic; extreme values may be limits of the assay

Row | Compound | relative viability EC50 (HepG2 [1]) [µM] | relative viability EC50 (Caco-2 [2]) [µM] | relative viability EC50 (Vero E6 [3]) [µM] | relative viability EC50 (U2OS [4]) [µM] | cell viability (HepG2 [5]; 1 nM) [%] | cell viability (HepG2 [5]; 10 nM) [%] | cell viability (HepG2 [5]; 100 nM) [%] | cell viability (HepG2 [5]; 1000 nM) [%] | cell viability (HepG2 [5]; 10000 nM) [%] | cell viability (Caco-2 [6]; 1 nM) [%] | cell viability (Caco-2 [6]; 10 nM) [%] | cell viability (Caco-2 [6]; 100 nM) [%] | cell viability (Caco-2 [6]; 1000 nM) [%] | cell viability (Caco-2 [6]; 10000 nM) [%] | cell viability (Vero E6 [7]; 1 nM) [%] | cell viability (Vero E6 [7]; 10 nM) [%] | cell viability (Vero E6 [7]; 100 nM) [%] | cell viability (Vero E6 [7]; 1000 nM) [%] | cell viability (Vero E6 [7]; 10000 nM) [%] | cell viability (U2OS [8]; 1 nM) [%] | cell viability (U2OS [8]; 10 nM) [%] | cell viability (U2OS [8]; 100 nM) [%] | cell viability (U2OS [8]; 1000 nM) [%] | cell viability (U2OS [8]; 10000 nM) [%] | drug sensitivity score (HepG2 [9]) | drug sensitivity score (Caco-2 [10]) | drug sensitivity score (Vero E6 [11]) | drug sensitivity score (U2OS [12]) | cell viability (Calu-3 [13]; 1 nM) [%] | cell viability (Calu-3 [13]; 10 nM) [%] | cell viability (Calu-3 [13]; 100 nM) [%] | cell viability (Calu-3 [13]; 1000 nM) [%] | cell viability (Calu-3 [13]; 10000 nM) [%] | drug sensitivity score (Calu-3 [14])
1 | CCS(=O)(=O)N1CC(CC#N)(n2cc(-c3ncnc4[nH]ccc34)cn2)C1 [baricitinib] | > 10 | > 10 | > 10 | > 10 | 98.6 | 106 | 91.1 | 107 | 90.3 | 95.6 | 102 | 92.9 | 97 | 99.7 | 98.6 | 100 | 102 | 102 | 101 | 95.4 | 98.5 | 95.1 | 94.4 | 96.4 | 0 | 0 | 0 | 0 |  |  |  |  |  | 
2 | COc1cc(CNC(=O)CCCC/C=C/C(C)C)ccc1O [capsaicin] |  | > 10 | > 10 | > 10 |  |  |  |  |  | 116 | 90.9 | 103 | 91.2 | 107 | 96.4 | 100 | 106 | 107 | 102 | 106 | 100 | 101 | 98.4 | 100 |  | 0 | 0 | 0 |  |  |  |  |  | 
3 | CC(=O)N[C@H](Cc1ccc2ccccc2c1)C(=O)N[C@H](Cc1ccc(Cl)cc1)C(=O)N[C@H](Cc1cccnc1)C(=O)N[C@@H](CO)C(=O)N[C@@H](Cc1ccc(O)cc1)C(=O)N[C@H](CCCNC(N)=O)C(=O)N[C@@H](CC(C)C)C(=O)N[C@@H](CCCNC(=N)N)C(=O)N1CCC[C@H]1C(=O)N[C@H](C)C(N)=O [cetrorelix] | > 10 | > 10 | > 10 | > 10 | 102 | 93.7 | 101 | 97.8 | 83.1 | 117 | 95.5 | 110 | 114 | 104 | 105 | 101 | 105 | 99.3 | 90.3 | 102 | 93.6 | 96.9 | 95.1 | 100 | 0.6 | 0 | 0 | 0 |  |  |  |  |  | 
4 | O=C(O)/C=C(/CC(=O)O)C(=O)O [cis-aconitic-acid] | > 10 | > 10 | > 10 | > 10 | 105 | 105 | 91.6 | 113 | 98.9 | 88.4 | 97.1 | 98.6 | 90 | 93.4 | 99 | 103 | 94.9 | 97.8 | 109 | 98.3 | 99.1 | 101 | 96.7 | 103 | 0 | 0 | 0 | 0 |  |  |  |  |  | 
5 | CC(C)NCC(O)c1ccccc1Cl (stereo not drawn) [clorprenaline] | > 10 | > 10 | > 10 | > 10 | 101 | 102 | 93.4 | 97.3 | 113 | 99.7 | 104 | 94.7 | 93.7 | 102 | 99.8 | 95 | 99.8 | 99.6 | 106 | 94 | 103 | 95.6 | 102 | 103 | 0 | 0 | 0 | 0 |  |  |  |  |  | 
6 | O=C(O)[C@@H](S)[C@@H](S)C(=O)O [dimercaptosuccinic-acid] |  | > 10 | > 10 | > 10 |  |  |  |  |  | 107 | 90.7 | 94.2 | 95.8 | 110 | 99.7 | 102 | 100 | 101 | 104 | 101 | 98.2 | 101 | 101 | 105 |  | 0 | 0 | 0 |  |  |  |  |  | 
7 | N=C(Nc1ccccc1)Nc1ccccc1 [diphenylguanidine] | > 10 | > 10 | > 10 | > 10 | 117 | 92.6 | 103 | 101 | 101 | 92.4 | 93.5 | 91.5 | 94.2 | 107 | 100 | 95.1 | 103 | 91.8 | 104 | 98.4 | 98 | 95.3 | 100 | 106 | 0 | 0 | 0 | 0 |  |  |  |  |  | 
8 | C[C@H](Nc1ncnc2nc[nH]c12)c1cc2cccc(Cl)c2c(=O)n1-c1ccccc1 [duvelisib] |  |  | > 10 | > 10 | 91.8 | 96.5 | 97.9 | 89.5 | 65.9 | 99.8 | 95.4 | 91.7 | 84.1 | 52.5 | 105 | 101 | 94.9 | 91.8 | 76.3 | 99.4 | 92.2 | 96.1 | 88.6 | 75.5 | 3 | 4.1 | 1.4 | 1.7 | 98.6 | 102 | 101 | 88.9 | 58.6 | 3.8
9 | O=C(Nc1cccc2cccnc12)c1ccc(N2C(=O)[C@@H]3[C@H](C2=O)[C@@H]2C=C[C@H]3C2)cc1 [endo-IWR-1] |  |  |  |  | 108 | 103 | 98.5 |  | 91.7 | 96 | 94.3 | 101 | 89.2 | 94.2 | 110 | 105 | 97.6 | 78.8 | 66.7 |  | 105 | 103 | 98 | 93.3 | 0 | 0 | 3.9 | 0 |  | 108 | 98.9 | 81.8 | 74.4 | 2.9
10 | CCCCC/C=C\C/C=C\C/C=C\CCCCC(=O)O [gamma-linolenic-acid] | > 10 | > 10 | > 10 | > 10 | 107 | 115 | 94.8 | 99.2 | 107 | 97.9 | 103 | 102 | 116 | 94 | 98.2 | 103 | 97.2 | 103 | 100 | 106 | 106 | 98.9 | 103 | 103 | 0 | 0 | 0 | 0 |  |  |  |  |  | 
11 | C[C@]12CCC(=O)C=C1CC[C@@H]1[C@@H]2[C@@H](O)C[C@@]2(C)[C@H]1CC[C@]2(O)C(=O)CO [hydrocortisone] |  |  |  |  |  |  |  |  |  |  |  |  |  |  |  |  |  |  |  |  |  |  |  |  | 2.9 |  | 0 | 0 |  |  |  |  |  | 0
12 | CC(C)C(N)=O [isobutyramide] | > 10 | > 10 | > 10 | > 10 | 115 | 99.1 | 90.3 | 101 | 96.8 | 95.1 | 95.6 | 97.9 | 90.2 | 98.2 | 105 | 106 | 96.2 | 98 | 105 | 102 | 97.6 | 101 | 98.8 | 104 | 0 | 0 | 0 | 0 |  |  |  |  |  | 
13 | O=c1cc(-c2ccc(O)c(O)c2)oc2cc(O)cc(O)c12 [luteolin] | > 10 | > 10 | > 10 | > 10 | 111 | 99.4 | 117 | 97.5 | 90.8 | 92.8 | 98.1 | 95.9 | 94.5 | 79.3 | 99.5 | 105 | 94.7 | 101 | 95.3 | 99.9 | 105 | 99.9 | 105 | 79.4 | 0 | 1.1 | 0 | 0.4 | 105 | 123 | 107 | 106 | 70.9 | 0.9
14 | CCN(CC)CCNC(=O)c1cc(Cl)c(N)cc1OC [metoclopramide] |  |  |  |  |  |  |  |  |  |  |  |  |  |  |  |  |  |  |  |  |  |  |  |  | 0 |  | 0 | 0 |  |  |  |  |  | 0
15 | Nc1cc(N2CCCCC2)nc(N)[n+]1[O-] [minoxidil] |  |  |  |  |  |  |  |  |  |  |  |  |  |  |  |  |  |  |  |  |  |  |  |  | 0 |  | 0 | 0 |  |  |  |  |  | 0
16 | CC1(C)CCC(C)(C)c2cc(Cn3cccn3)c(/C=C/c3ccc(C(=O)O)cc3)cc21 [palovarotene] | > 10 | > 10 | > 10 | > 10 | 95.4 | 99.7 | 103 | 113 | 99.4 | 107 | 93.7 | 94.8 | 96 | 92.9 | 100 | 104 | 100 | 106 | 98.3 | 105 | 99.6 | 102 | 94 | 94.8 | 0 | 0 | 0 | 0 |  |  |  |  |  | 
17 | Cc1cc(=O)n(-c2ccccc2)n1C [phenazone] |  |  |  |  |  |  |  |  |  |  |  |  |  |  |  |  |  |  |  |  |  |  |  |  | 0.8 |  | 0 | 0 |  |  |  |  |  | 0
18 | COc1cc(NS(=O)(=O)c2ccc(N)cc2)ncn1 [sulfamonomethoxine] | > 10 | > 10 | > 10 | > 10 | 108 | 104 | 115 | 107 | 90.9 | 92.6 | 102 | 95.4 | 98.4 | 98.7 | 106 | 106 | 106 | 104 | 97 | 101 | 99.7 | 101 | 102 | 100 | 0 | 0 | 0 | 0 |  |  |  |  |  | 
19 | Cn1nc(-c2cccc(F)c2)n(C)c1=S [suritozole] | > 10 | > 10 | > 10 | > 10 | 108 | 99.4 | 98.2 | 106 | 97 | 93.6 | 97.5 | 102 | 96 | 90.1 | 102 | 101 | 99.4 | 94.5 | 98.4 | 98.9 | 101 | 99.7 | 103 | 96 | 0 | 0 | 0 | 0 |  |  |  |  |  | 
20 | CN(C)C(=S)SC(=S)N(C)C [tetramethylthiuram-monosulfide] |  |  |  |  |  |  |  |  |  |  |  |  |  |  |  |  |  |  |  |  |  |  |  |  | 11.3 |  | 8.1 | 5.7 |  |  |  |  |  | 8.4
21 | N#C[C@@H]1CCCN1C(=O)CNC12CC3CC(CC(O)(C3)C1)C2 [vildagliptin] |  |  |  |  |  |  |  |  |  |  |  |  |  |  |  |  |  |  |  |  |  |  |  |  | 0 |  | 0 |  |  |  |  |  |  | 0
